Patent US20220402925A1, “COMPOUNDS AND METHODS FOR THE TREATMENT OF CYSTIC FIBROSIS” (Flatley Discovery Lab, LLC, priority 2019, published 2022)

Each compound was assayed against T1, F508del CFTR (Homo sapiens, UniProt P13569, DEL508-508) (assay: Equivalent current assay in primary CF airway epithelial cells (Corrector Activity, NAUC normalized to 3 μM VX809)). Conditions: NAUC as % of positive control (VX-809).
T1 construct: Primary CF airway epithelial cells were obtained from the UNC Cystic Fibrosis Tissue Procurement and Cell Culture Core; host or cells: primary CF airway epithelial cells
T1 sequence (P13569 with tags, fused parts or gaps DEL508-508): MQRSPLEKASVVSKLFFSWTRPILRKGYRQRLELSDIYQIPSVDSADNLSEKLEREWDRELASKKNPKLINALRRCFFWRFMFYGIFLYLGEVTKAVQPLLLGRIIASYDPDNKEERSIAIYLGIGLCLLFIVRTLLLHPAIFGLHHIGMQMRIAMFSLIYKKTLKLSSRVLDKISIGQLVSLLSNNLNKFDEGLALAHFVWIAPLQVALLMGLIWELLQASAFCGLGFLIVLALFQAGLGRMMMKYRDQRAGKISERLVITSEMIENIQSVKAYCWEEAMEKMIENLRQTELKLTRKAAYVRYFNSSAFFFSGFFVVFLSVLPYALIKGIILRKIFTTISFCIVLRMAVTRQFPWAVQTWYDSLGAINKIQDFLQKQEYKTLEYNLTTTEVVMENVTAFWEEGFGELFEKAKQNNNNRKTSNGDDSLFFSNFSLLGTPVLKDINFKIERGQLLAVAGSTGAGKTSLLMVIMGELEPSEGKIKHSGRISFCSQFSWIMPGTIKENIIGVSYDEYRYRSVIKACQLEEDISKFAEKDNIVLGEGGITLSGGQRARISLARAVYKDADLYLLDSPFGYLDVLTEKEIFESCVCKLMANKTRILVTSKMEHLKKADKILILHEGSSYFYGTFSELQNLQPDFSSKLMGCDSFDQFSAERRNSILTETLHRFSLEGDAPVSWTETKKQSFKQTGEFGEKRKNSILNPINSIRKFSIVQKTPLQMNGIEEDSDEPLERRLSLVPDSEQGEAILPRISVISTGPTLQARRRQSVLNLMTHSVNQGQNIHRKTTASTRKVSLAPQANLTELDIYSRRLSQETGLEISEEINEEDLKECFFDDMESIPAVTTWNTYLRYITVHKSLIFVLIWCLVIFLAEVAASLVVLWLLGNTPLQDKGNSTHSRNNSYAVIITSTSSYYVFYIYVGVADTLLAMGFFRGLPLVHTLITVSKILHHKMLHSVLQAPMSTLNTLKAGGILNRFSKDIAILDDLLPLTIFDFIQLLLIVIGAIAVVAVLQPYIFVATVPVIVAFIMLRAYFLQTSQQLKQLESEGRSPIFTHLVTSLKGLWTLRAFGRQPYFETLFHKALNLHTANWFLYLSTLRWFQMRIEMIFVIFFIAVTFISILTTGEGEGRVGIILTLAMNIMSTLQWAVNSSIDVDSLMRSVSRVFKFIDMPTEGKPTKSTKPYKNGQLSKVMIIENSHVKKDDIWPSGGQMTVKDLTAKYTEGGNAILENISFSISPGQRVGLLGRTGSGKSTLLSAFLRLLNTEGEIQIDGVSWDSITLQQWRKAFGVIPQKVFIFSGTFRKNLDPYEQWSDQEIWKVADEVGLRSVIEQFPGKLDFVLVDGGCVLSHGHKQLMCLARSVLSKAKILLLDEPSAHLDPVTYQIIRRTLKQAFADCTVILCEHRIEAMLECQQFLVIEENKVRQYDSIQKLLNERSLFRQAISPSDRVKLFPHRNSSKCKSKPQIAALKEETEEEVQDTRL
Assay type: cell-based
Summary of the method: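 Differentiated primary CF airway cells treated basolaterally 24 h at 37° C with compound (0.1% DMSO). Equivalent current recorded after 5 μM benzamil, stimulation with 10 μM forskolin plus 1 μM VX-770 or 3 μM FDL176, and block by 20 μM CFTR-172; vehicle-subtracted AUC normalized to 3 μM VX809; EC50 from sigmoid fit, Hill slope 1.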
For `CCN(C(=O)Cn1nc(-c2cc(Cl)cc(OC)c2)c2oc(C3CCC3)cc2c1=O)c1ccc2c(c1)OC(F)(F)O2` [Example 240], the “Corr Activity (NAUC)” value was “+ (NAUC<40% of positive control)”. `CCN(C(=O)Cn1nc(-c2cc(C#N)cc(C(F)(F)F)c2)c2[nH]cnc2c1=O)c1ccc2c(c1)OC(F)(F)O2` [Example 281] was tested, and the “Corr Activity (NAUC)” value was “+++ (NAUC>70% of positive control)”. `N#Cc1cc(-c2nn(CC(=O)N(c3ccc4c(c3)OC(F)(F)O4)C3CC3)c(=O)c3nc[nH]c23)ccc1N1CCC(F)(F)C1` [Example 489] was tested, and the “Corr Activity (NAUC)” value was “+++ (NAUC>70% of positive control)”. For `CN(C(=O)Cn1nc(-c2cccc(Cl)c2)c2oc(C(=O)N3CCCC3)cc2c1=O)c1ccc2c(c1)OC(F)(F)O2` [Example 65, 2-(7-(3-chlorophenyl)-4-oxo-2-(pyrrolidine-1-carbonyl)furo[2,3-d]pyridazin-5(4H)-yl)-N-(2,2-difluorobenzo[d][1,3]dioxol-5-yl)-N-methylacetamide], the “Corr Activity (NAUC)” value was “+ (NAUC<40% of positive control)”. In the case of `Cc1cc(C#N)cc(-c2nn(CC(=O)N(C)c3cc4c(cc3C)OC(F)(F)O4)c(=O)c3ccoc23)c1` [Example 165], the “Corr Activity (NAUC)” value is reported as “+++ (NAUC>70% of positive control)”. In the case of `CCN(C(=O)Cn1nc(-c2cccc(C#N)c2)c2oc(CN3CCCC3)cc2c1=O)c1ccc2c(c1)OC(F)(F)O2` [Example 203], the “Corr Activity (NAUC)” value is reported as “+++ (NAUC>70% of positive control)”. For `Cn1c2ccccc2c2cc(-c3nn(CC(=O)N(c4ccc5c(c4)OC(F)(F)O5)C4CC4)c(=O)c4nc[nH]c34)ccc21` [Example 425], the “Corr Activity (NAUC)” value was “+ (NAUC<40% of positive control)”. `N#Cc1cc(Cl)cc(-c2nn(CC(=O)N3CCCc4c3ccc3c4OC(F)(F)O3)c(=O)c3ccoc23)c1` [Example 103] was tested, and the “Corr Activity (NAUC)” value was “++ (NAUC 70-40% of positive control)”. For `CN(C(=O)Cn1nc(-c2cc(C#N)cc(C(F)F)c2)c2oc(C(=O)NC(C)(C)C)cc2c1=O)c1ccc2c(c1)OC(F)(F)O2` [Example 146], the “Corr Activity (NAUC)” value was “+++ (NAUC>70% of positive control)”. `CC(C)COc1cc(F)cc(-c2nn(CC(=O)N(c3ccc4c(c3)OC(F)(F)O4)C3CC3)c(=O)c3nc[nH]c23)c1` [Example 384] was tested, and the “Corr Activity (NAUC)” value was “++ (NAUC 70-40% of positive control)”. For `CCN(C(=O)Cn1nc(-c2ccc(C(F)(F)F)c(Cl)c2)c2[nH]cnc2c1=O)c1ccc2c(c1)OC(F)(F)O2` [Example 328], the “Corr Activity (NAUC)” value was “+ (NAUC<40% of positive control)”. In the case of `CCN(C(=O)Cn1nc(-c2cc(Cl)cc(C#N)c2)c2oc(C(=O)NC(C)(C)C)cc2c1=O)c1ccc2c(c1C)OC(F)(F)O2` [Example 142], the “Corr Activity (NAUC)” value is reported as “++ (NAUC 70-40% of positive control)”. With `COc1cc(C)cc(-c2nn(CC(=O)N(c3ccc4c(c3)OC(F)(F)O4)C3CC3)c(=O)c3nc[nH]c23)c1` [Example 395] the “Corr Activity (NAUC)” value was “+ (NAUC<40% of positive control)”. For `CCN(C(=O)Cn1nc(-c2cc(OC)cc(C(F)(F)F)c2)c2[nH]cnc2c1=O)c1ccc2c(c1)OC(F)(F)O2` [Example 265], the “Corr Activity (NAUC)” value was “+ (NAUC<40% of positive control)”. With `CCN(C(=O)Cn1nc(-c2ccc3c(c2)OCCO3)c2[nH]cnc2c1=O)c1ccc2c(c1)OC(F)(F)O2` [Example 294] the “Corr Activity (NAUC)” value was “+ (NAUC<40% of positive control)”. In the case of `CCN(C(=O)Cn1nc(-c2ccc(CC#N)c(OC)c2)c2[nH]cnc2c1=O)c1ccc2c(c1)OC(F)(F)O2` [Example 357], the “Corr Activity (NAUC)” value is reported as “+ (NAUC<40% of positive control)”. `CCN(C(=O)Cn1nc(-c2cccc(OC(C)(C)C)c2)c2oc(C(=O)NC(C)(C)C)cc2c1=O)c1ccc2c(c1)OC(F)(F)O2` [Example 122] was tested, and the “Corr Activity (NAUC)” value was “++ (NAUC 70-40% of positive control)”. With `CN(C(=O)Cn1nc(-c2cccc(C#N)c2)c2sccc2c1=O)c1ccc2c(c1)OC(F)(F)O2` [Example 7] the “Corr Activity (NAUC)” value was “+++ (NAUC>70% of positive control)”. For `CCN(C(=O)Cn1nc(-c2cccc(Cl)c2)c2cn[nH]c2c1=O)c1ccc2c(c1)OC(F)(F)O2` [Example 496], the “Corr Activity (NAUC)” value was “++ (NAUC 70-40% of positive control)”. With `CCN(C(=O)Cn1nc(-c2cc(Cl)cc(OC)c2)c2[nH]cnc2c1=O)c1ccc2c(c1)OC(F)(F)O2` [Example 257] the “Corr Activity (NAUC)” value was “+++ (NAUC>70% of positive control)”. For `CCN(C(=O)Cn1nc(-c2cc(Cl)cc(Cl)c2)c2occc2c1=O)c1ccc2c(c1)OC(F)(F)O2` [Example 174], the “Corr Activity (NAUC)” value was “++ (NAUC 70-40% of positive control)”. `CCN(C(=O)Cn1nc(-c2cc(C)cc(C#N)c2)c2oc(C(F)F)cc2c1=O)c1ccc2c(c1)OC(F)(F)O2` [Example 189] was tested, and the “Corr Activity (NAUC)” value was “+++ (NAUC>70% of positive control)”. For `CCN(C(=O)Cn1nc(-c2cc(F)cc(F)c2)c2oc(C3CCC3)cc2c1=O)c1ccc2c(c1)OC(F)(F)O2` [Example 235], the “Corr Activity (NAUC)” value was “++ (NAUC 70-40% of positive control)”. With `CCN(C(=O)Cn1nc(-c2ccc3ccccc3c2)c2[nH]cnc2c1=O)c1ccc2c(c1)OC(F)(F)O2` [Example 292] the “Corr Activity (NAUC)” value was “+ (NAUC<40% of positive control)”. With `CCN(C(=O)Cn1nc(-c2cccc(OC(F)(F)F)c2)c2occc2c1=O)c1ccc2nc(C)oc2c1` [Example 94] the “Corr Activity (NAUC)” value was “++ (NAUC 70-40% of positive control)”. With `COc1cc(-c2nn(CC(=O)N(c3ccc4c(c3)OC(F)(F)O4)C3CC3)c(=O)c3nc[nH]c23)cc(C(F)(F)F)c1` [Example 387] the “Corr Activity (NAUC)” value was “+ (NAUC<40% of positive control)”. With `CCN(C(=O)Cn1nc(-c2cc(C#N)cc(C(F)(F)F)c2)c2oc(C(=O)NC(C)(C)C)cc2c1=O)c1ccc2c(c1)OC(F)(F)O2` [Example 144] the “Corr Activity (NAUC)” value was “+++ (NAUC>70% of positive control)”. `CCN(C(=O)Cn1nc(-c2cccc(C#N)c2)c2[nH]cnc2c1=O)c1ccc2c(c1F)OC(F)(F)O2` [Example 250] was tested, and the “Corr Activity (NAUC)” value was “+++ (NAUC>70% of positive control)”. In the case of `Cc1cc(C#N)cc(-c2nn(CC(=O)N(C)c3cc4c(cc3C)OC(F)(F)O4)c(=O)c3nc[nH]c23)c1` [Example 249], the “Corr Activity (NAUC)” value is reported as “+++ (NAUC>70% of positive control)”. In the case of `CC(C)(C)NC(=O)c1cc2c(=O)n(CC(=O)N3CCCc4c3ccc3c4OC(F)(F)O3)nc(-c3cccc(Cl)c3)c2o1` [Example 128], the “Corr Activity (NAUC)” value is reported as “++ (NAUC 70-40% of positive control)”. `COC(=O)c1cc(Cl)cc(-c2nn(CC(=O)N(c3ccc4c(c3)OC(F)(F)O4)C3CC3)c(=O)c3nc[nH]c23)c1` [Example 390] was tested, and the “Corr Activity (NAUC)” value was “+ (NAUC<40% of positive control)”. In the case of `CCN(C(=O)Cn1nc(-c2cc(Cl)cc(N3CCCC3)c2)c2[nH]cnc2c1=O)c1ccc2c(c1)OC(F)(F)O2` [Example 277], the “Corr Activity (NAUC)” value is reported as “+++ (NAUC>70% of positive control)”. With `O=C(Cn1nc(-c2cc(Cl)cc(OCc3ccccc3)c2)c2[nH]cnc2c1=O)N(c1ccc2c(c1)OC(F)(F)O2)C1CC1` [Example 396] the “Corr Activity (NAUC)” value was “+++ (NAUC>70% of positive control)”. With `CCN(C(=O)Cn1nc(-c2cc(F)cc(C#N)c2)c2oc(C(=O)NC(C)(C)C)cc2c1=O)c1cc2c(cc1C)OC(F)(F)O2` [Example 136] the “Corr Activity (NAUC)” value was “+++ (NAUC>70% of positive control)”. `CCN(C(=O)Cn1nc(-c2cc(C#N)cc(OCCO)c2)c2occc2c1=O)c1ccc2c(c1)OC(F)(F)O2` [Example 214] was tested, and the “Corr Activity (NAUC)” value was “++ (NAUC 70-40% of positive control)”. With `CCN(C(=O)Cn1nc(-c2ccc(OCC3CC3)c(Cl)c2)c2[nH]cnc2c1=O)c1ccc2c(c1)OC(F)(F)O2` [Example 347] the “Corr Activity (NAUC)” value was “+++ (NAUC>70% of positive control)”. With `CCN(C(=O)Cn1nc(-c2cc(C)cc(C#N)c2)c2occc2c1=O)c1ccc2c(c1)OC(F)(F)O2` [Example 84] the “Corr Activity (NAUC)” value was “+++ (NAUC>70% of positive control)”. For `CN(C(=O)Cn1nc(-c2cccc(Cl)c2)c2oc(C(=O)NC(C)(C)C)cc2c1=O)c1ccc2c(c1)OC(F)(F)O2` [Example 205, N-(tert-butyl)-7-(3-chlorophenyl)-5-(2-((2,2-difluorobenzo[d][1,3]dioxol-5-yl)(methyl)amino)-2-oxoethyl)-4-oxo-4,5-dihydrofuro[2,3-d]pyridazine-2-carboxamide], the “Corr Activity (NAUC)” value was “+++ (NAUC>70% of positive control)”. With `Cc1nc2ccc(N(C)C(=O)Cn3nc(-c4cccc(C(C)(C)C)c4)c4occc4c3=O)cc2o1` [Example 92] the “Corr Activity (NAUC)” value was “+ (NAUC<40% of positive control)”. In the case of `CN(C(=O)Cn1nc(-c2cccc(C#N)c2)c2oc(Cl)cc2c1=O)c1ccc2c(c1)OC(F)(F)O2` [Example 64], the “Corr Activity (NAUC)” value is reported as “++ (NAUC 70-40% of positive control)”. For `Cc1cc2c(cc1N(C)C(=O)Cn1nc(-c3cc(F)cc(C#N)c3)c3occc3c1=O)OC(F)(F)O2` [Example 166], the “Corr Activity (NAUC)” value was “+++ (NAUC>70% of positive control)”. For `CCN(C(=O)Cn1nc(-c2cc(Cl)cc(OCc3ccccc3)c2)c2[nH]cnc2c1=O)c1ccc2c(c1)OC(F)(F)O2` [Example 273], the “Corr Activity (NAUC)” value was “+++ (NAUC>70% of positive control)”. `CCN(C(=O)Cn1nc(-c2cc(C#N)cc(C(C)(C)C)c2)c2occc2c1=O)c1ccc2c(c1)OC(F)(F)O2` [Example 111] was tested, and the “Corr Activity (NAUC)” value was “+++ (NAUC>70% of positive control)”. For `Cc1cc2c(=O)n(CC(=O)N(C)c3ccc4c(c3)OC(F)(F)O4)nc(-c3cc(F)cc(F)c3)c2o1` [Example 71], the “Corr Activity (NAUC)” value was “+++ (NAUC>70% of positive control)”. `CCN(C(=O)Cn1nc(-c2cc(C)cc(Cl)c2)c2[nH]cnc2c1=O)c1ccc2c(c1)OC(F)(F)O2` [Example 269] was tested, and the “Corr Activity (NAUC)” value was “+++ (NAUC>70% of positive control)”. `Cc1nc2ccc(N(C)C(=O)Cn3nc(-c4cccc(Cl)c4)c4c(c3=O)CCC4)cc2o1` [Example 48] was tested, and the “Corr Activity (NAUC)” value was “++ (NAUC 70-40% of positive control)”. `CCN(C(=O)Cn1nc(-c2cccc(C#N)c2)c2occc2c1=O)c1ccc(OC(F)(F)F)cc1` [Example 62] was tested, and the “Corr Activity (NAUC)” value was “+ (NAUC<40% of positive control)”. For `CCN(C(=O)Cn1nc(-c2cccc(C#N)c2)c2oc(C(=O)N(C)C(C)(C)C)cc2c1=O)c1ccc2c(c1)OC(F)(F)O2` [Example 208], the “Corr Activity (NAUC)” value was “+++ (NAUC>70% of positive control)”. In the case of `CCN(C(=O)Cn1nc(-c2cccc(C#N)c2)c2oc(C(=O)NC3(C)CC3)cc2c1=O)c1ccc2c(c1)OC(F)(F)O2` [Example 206], the “Corr Activity (NAUC)” value is reported as “++ (NAUC 70-40% of positive control)”.
